# According to ChEMBL document CHEMBL3885881, “DrugMatrix”:
# Organism: Rattus norvegicus
# Assay: DrugMatrix - Regimen: Daily Repeat
# Assay type: toxicity, organism-based, Sprague-Dawley
# Parameters: regimen Daily Repeat, gender Male, age 6-8 weeks
# Conditions: in vivo, po, route oral GAVAGE, vehicle 100 % WATER
# [1] = 9 mg/kg, 72 h, tissue Blood, dose level Low, time 3 day
# [2] = 9 mg/kg, 72 h, tissue Plasma, dose level Low, time 3 day
# [3] = 9 mg/kg, 120 h, tissue Blood, dose level Low, time 5 day
# [4] = 9 mg/kg, 120 h, tissue Plasma, dose level Low, time 5 day
# [5] = 90 mg/kg, 72 h, tissue Blood, dose level High, time 3 day
# [6] = 90 mg/kg, 72 h, tissue Plasma, dose level High, time 3 day
# [7] = 90 mg/kg, 120 h, tissue Blood, dose level High, time 5 day
# [8] = 90 mg/kg, 120 h, tissue Plasma, dose level High, time 5 day
sequence,measurement,setting,value
STANNOUS FLUORIDE,ABSOLUTE BASOPHIL,[1],0 CELLS/uL
same,ABSOLUTE EOSINOPHIL,[1],0 CELLS/uL
same,ABSOLUTE LYMPHOCYTE,[1],13273.33 CELLS/uL
same,ABSOLUTE MONOCYTE,[1],348.33 CELLS/uL
same,ABSOLUTE SEGMENTED NEUTROPHIL,[1],1378.33 CELLS/uL
same,BASOPHIL,[1],0%
same,EOSINOPHIL,[1],0%
same,ERYTHROCYTE COUNT,[1],5.48 x10E6/uL
same,HEMATOCRIT,[1],34.9%
same,HEMOGLOBIN,[1],13.5 G/DL
same,LEUKOCYTE COUNT,[1],15 x10E3/uL
same,MEAN CORPUSCULAR HEMOGLOBIN,[1],24.67 pg
same,MEAN CORPUSCULAR HEMOGLOBIN CONCENTRATION,[1],38.7 G/DL
same,NUCLEATED RED BLOOD CELLS,[1],0 /100WBC
same,PLATELET COUNT,[1],1118.33 x10E3/uL
same,ALANINE AMINOTRANSFERASE,[2],80.67 u/L
same,ALKALINE PHOSPHATASE,[2],343 u/L
same,ASPARTATE AMINOTRANSFERASE,[2],104.33 u/L
same,BLOOD UREA NITROGEN,[2],17 mg/dL
same,CARBON DIOXIDE,[2],21.33 mmol/L
same,CHOLESTEROL,[2],77 mg/dL
same,CREATINE PHOSPHOKINASE,[2],322.33 u/L
same,CREATININE,[2],0.21 mg/dL
same,GLUCOSE,[2],188 mg/dL
same,LACTATE DEHYDROGENASE,[2],156 u/L
same,LIPASE,[2],9.5 u/L
same,PHOSPHORUS,[2],11.3 mg/dL
same,POTASSIUM,[2],6.63 MEQ/L
same,SODIUM,[2],146.2 MEQ/L
same,TOTAL BILIRUBIN,[2],0.37 mg/dL
same,TOTAL PROTEIN,[2],5.07 G/DL
same,URIC ACID,[2],1.73 mg/dL
same,ABSOLUTE BASOPHIL,[3],0 CELLS/uL
same,ABSOLUTE EOSINOPHIL,[3],174 CELLS/uL
same,ABSOLUTE LYMPHOCYTE,[3],11650 CELLS/uL
same,ABSOLUTE MONOCYTE,[3],421.33 CELLS/uL
same,ABSOLUTE SEGMENTED NEUTROPHIL,[3],1221.33 CELLS/uL
same,BASOPHIL,[3],0%
same,EOSINOPHIL,[3],1%
same,ERYTHROCYTE COUNT,[3],5.66 x10E6/uL
same,HEMATOCRIT,[3],35.6%
same,HEMOGLOBIN,[3],13.1 G/DL
same,LEUKOCYTE COUNT,[3],13.47 x10E3/uL
same,LYMPHOCYTE,[3],86.67%
same,MEAN CORPUSCULAR HEMOGLOBIN,[3],23.23 pg
same,MEAN CORPUSCULAR HEMOGLOBIN CONCENTRATION,[3],36.9 G/DL
same,MEAN CORPUSCULAR VOLUME,[3],62.97 fL
same,MONOCYTE,[3],3%
same,NUCLEATED RED BLOOD CELLS,[3],0 /100WBC
same,PLATELET COUNT,[3],1231.67 x10E3/uL
same,ALANINE AMINOTRANSFERASE,[4],45 u/L
same,ALKALINE PHOSPHATASE,[4],430.67 u/L
same,ASPARTATE AMINOTRANSFERASE,[4],96.67 u/L
same,BLOOD UREA NITROGEN,[4],22 mg/dL
same,CARBON DIOXIDE,[4],24.33 mmol/L
same,CHLORIDE,[4],108.67 MEQ/L
same,CHOLESTEROL,[4],59 mg/dL
same,CREATINE PHOSPHOKINASE,[4],371.67 u/L
same,CREATININE,[4],0.2 mg/dL
same,GLUCOSE,[4],135.33 mg/dL
same,LACTATE DEHYDROGENASE,[4],479 u/L
same,PHOSPHORUS,[4],12.03 mg/dL
same,POTASSIUM,[4],6.27 MEQ/L
same,SODIUM,[4],147.1 MEQ/L
same,TOTAL BILIRUBIN,[4],0.17 mg/dL
same,TOTAL PROTEIN,[4],6.13 G/DL
same,ABSOLUTE BASOPHIL,[5],0 CELLS/uL
same,ABSOLUTE EOSINOPHIL,[5],58 CELLS/uL
same,ABSOLUTE LYMPHOCYTE,[5],13530 CELLS/uL
same,ABSOLUTE MONOCYTE,[5],390.67 CELLS/uL
same,ABSOLUTE SEGMENTED NEUTROPHIL,[5],1821.33 CELLS/uL
same,BASOPHIL,[5],0%
same,EOSINOPHIL,[5],0.33%
same,ERYTHROCYTE COUNT,[5],5.56 x10E6/uL
same,HEMATOCRIT,[5],34%
same,LEUKOCYTE COUNT,[5],15.8 x10E3/uL
same,LYMPHOCYTE,[5],85.67%
same,MEAN CORPUSCULAR HEMOGLOBIN,[5],23.23 pg
same,MEAN CORPUSCULAR HEMOGLOBIN CONCENTRATION,[5],38 G/DL
same,NEUTROPHIL,[5],11.67%
same,NUCLEATED RED BLOOD CELLS,[5],0 /100WBC
same,PLATELET COUNT,[5],1397.33 x10E3/uL
same,ALANINE AMINOTRANSFERASE,[6],42 u/L
same,ALKALINE PHOSPHATASE,[6],299.67 u/L
same,ASPARTATE AMINOTRANSFERASE,[6],76.33 u/L
same,CARBON DIOXIDE,[6],25 mmol/L
same,CHOLESTEROL,[6],62.33 mg/dL
same,CREATINE PHOSPHOKINASE,[6],334 u/L
same,CREATININE,[6],0.15 mg/dL
same,LACTATE DEHYDROGENASE,[6],108 u/L
same,PHOSPHORUS,[6],13.3 mg/dL
same,POTASSIUM,[6],6 MEQ/L
same,TOTAL BILIRUBIN,[6],0.23 mg/dL
same,TOTAL PROTEIN,[6],5.67 G/DL
same,ABSOLUTE BASOPHIL,[7],0 CELLS/uL
same,ABSOLUTE EOSINOPHIL,[7],49.67 CELLS/uL
same,ABSOLUTE MONOCYTE,[7],426 CELLS/uL
same,ABSOLUTE SEGMENTED NEUTROPHIL,[7],994 CELLS/uL
same,BASOPHIL,[7],0%
same,EOSINOPHIL,[7],0.33%
same,ERYTHROCYTE COUNT,[7],5.79 x10E6/uL
same,HEMATOCRIT,[7],36.83%
same,HEMOGLOBIN,[7],13.8 G/DL
same,LEUKOCYTE COUNT,[7],14.2 x10E3/uL
same,MEAN CORPUSCULAR HEMOGLOBIN,[7],23.9 pg
same,MEAN CORPUSCULAR HEMOGLOBIN CONCENTRATION,[7],37.5 G/DL
same,MONOCYTE,[7],3%
same,NEUTROPHIL,[7],7%
same,NUCLEATED RED BLOOD CELLS,[7],0 /100WBC
same,PLATELET COUNT,[7],1414 x10E3/uL
same,ALANINE AMINOTRANSFERASE,[8],41.33 u/L
same,ALKALINE PHOSPHATASE,[8],357 u/L
same,ASPARTATE AMINOTRANSFERASE,[8],86.33 u/L
same,CARBON DIOXIDE,[8],24.33 mmol/L
same,CREATINE PHOSPHOKINASE,[8],353.67 u/L
same,CREATININE,[8],0.22 mg/dL
same,GLUCOSE,[8],190.67 mg/dL
same,LACTATE DEHYDROGENASE,[8],202.33 u/L
same,PHOSPHORUS,[8],14.33 mg/dL
same,POTASSIUM,[8],6.7 MEQ/L
same,SODIUM,[8],150 MEQ/L
same,TOTAL BILIRUBIN,[8],0.2 mg/dL
same,TOTAL PROTEIN,[8],5.87 G/DL
same,URIC ACID,[8],2.3 mg/dL
